# In PMC3666979, “Eliciting Renal Failure in Mosquitoes with a Small-Molecule Inhibitor of Inward-Rectifying Potassium Channels” (PLoS ONE, 2013):
# Marks after values point to notes of the source that are not given here.
# What was measured:
# [1] = tested on: adult female mosquitoes (Aedes aegypti); assay: Mosquito toxicology: incapacitation 24 h after intrathoracic injection (69 nl); type: in vivo; conditions: for mosquitoes bloated (retained fluid) / % Incapacitated (flightless or dead): 69 nl of 10 mM in PBS/15% DMSO; for mosquitoes bloated (retained fluid): 24 h; for % Incapacitated (flightless or dead): within 24 hours
# Procedure: (§1) Mosquitoes were first anesthetized on ice and then injected with 69 nl of fluid (see below) using a pulled-glass capillary attached to a nanoliter injector (Nanoject II, Drummond Scientific Company, Broomall, PA). The injected fluid was a sodium-based phosphate-buffered saline (Na^+-PBS) containing 15% DMSO and various concentrations of VU573 or VU342 to deliver the doses indicated in Figures 2A, 2C, and S3. The Na^+-PBS consisted of the following in mM: 137 NaCl, 2.7 KCl, 10 Na2HPO4, and 2 KH2PO4 (pH 7.5). After injection, the mosquitoes were placed in a small cage (10 females per cage) within a rearing chamber (28°C, 80% relative humidity, 12∶12 light∶dark) and allowed free access to a solution of 10% sucrose. The mosquitoes were observed 24 h after injection.
# (§2) Data were analyzed using Prism 5 for Windows (Graphpad Software). To generate a dose-response curve for VU573, the doses (x-axis) were log transformed and then a non-linear curve was fitted to the data using the ‘log(agonist) vs. response’ algorithm. An ED50 was calculated from this curve. To compare 1) the incapacitating effects among the vehicle, VU573, and VU342 treatments, and 2) the rates of urine excretion among the control, vehicle, VU573, and VU342 treatments, one-way ANOVAs were performed with Newman-Keuls posttests. To compare the incapacitating effects between the vehicle and VU573 within each mosquito species, a paired t-test was used.
# [2] = tested on: intact mosquitoes (Ae. aegypti); assay: Urine excretion rate of intact mosquitoes after 900 nl HBS injection; type: in vivo, Aedes aegypti; conditions: 2 h
# Procedure: Urine excretion rates from intact mosquitoes (Ae. aegypti) were measured using a method modified from the laboratory of Hansen. After anesthetizing mosquitoes on ice they were injected as described above with 900 nl of fluid (100 nl/s). The injected fluid was one of two HEPES-buffered saline (HBS) solutions containing 1.8% DMSO with 0.77 mM VU573 or 0.77 mM VU342. Vehicle controls received the respective HBS with DMSO alone. The Na^+-HBS consisted of the following in mM: 146 NaCl, 4.2 N-methyl-D-glucammonium (NMDG)-Cl, and 25 mM HEPES (pH 7.5). The K^+-HBS consisted of the following in mM: 10 mM NaCl, 75 mM KCl, 65.2 mM NMDG-Cl, and 25 mM HEPES (pH 7.5). After injection, mosquitoes were placed immediately in a graduated, packed-cell volume tube (MidSci, St. Louis, MO; 3 mosquitoes per tube) at room temperature. The mosquitoes were removed from the tubes with forceps after 2 h and the excreted urine was centrifuged into the graduated column of the tube for measurement. Uninjected control mosquitoes were handled exactly as above without the injection step. Data were analyzed using Prism 5 for Windows (Graphpad Software). To generate a dose-response curve for VU573, the doses (x-axis) were log transformed and then a non-linear curve was fitted to the data using the ‘log(agonist) vs. response’ algorithm. An ED50 was calculated from this curve. To compare 1) the incapacitating effects among the vehicle, VU573, and VU342 treatments, and 2) the rates of urine excretion among the control, vehicle, VU573, and VU342 treatments, one-way ANOVAs were performed with Newman-Keuls posttests. To compare the incapacitating effects between the vehicle and VU573 within each mosquito species, a paired t-test was used.
# [3] = tested on: isolated Malpighian tubules; assay: Fluid secretion by isolated Malpighian tubules (Ramsay method); parameters: species or system Aedes aegypti; conditions: 10 µM in peritubular bath, after 2 hours, high-potassium Ringer
# Procedure: Fluid secretion rates from isolated Malpighian tubules (Ae. aegypti) were measured in vitro using the method described in [25], which is modified from that of Ramsay. In brief, isolated tubules were bathed in a 50 µl drop of a mosquito Ringer solution with elevated K^+ (see composition below), which was then covered with light mineral oil. A glass hook was used to pull the open proximal end of the tubule into the mineral oil where fluid was secreted. The diameter of the droplet was measured to calculate the secreted volumes.
# In one set of tubules, the initial spontaneous rate of fluid secretion was calculated during the first 30 min (control). In another set of tubules, the rates of fluid secretion were determined 2 h after adding one of the following to the peritubular bath: the vehicle (0.05% DMSO), VU573 (10 µM), or VU342 (10 µM). The Ringer solution consisted of the following in mM: 119.4 NaCl, 34 KCl, 25 HEPES, 1.8 NaHCO3, 1.7 CaCl2, and 1.0 MgSO4, pH 7.1.
# (§3) Data were analyzed using Prism 5 for Windows (Graphpad Software) and Excel (Microsoft Corp). To compare the rates of fluid secretion among control, vehicle, VU573, and VU342 treatments, a one-way ANOVA was performed with a Newman-Keuls posttest. To compare the Vbl and Rpc values of principal cells between control and treatment periods a paired t-test was performed.
# [4] = molecular target: T1, AeKir1 (Aedes aegypti, UniProt L0EQS9); assay: Whole-cell patch clamp of AeKir1 expressed in T-REx-HEK-293 cells; type: cell-based; conditions: for IC50: AeKir1-mediated currents, T-REx-HEK-293 cells
# T1 sequence (L0EQS9 entry or part of it): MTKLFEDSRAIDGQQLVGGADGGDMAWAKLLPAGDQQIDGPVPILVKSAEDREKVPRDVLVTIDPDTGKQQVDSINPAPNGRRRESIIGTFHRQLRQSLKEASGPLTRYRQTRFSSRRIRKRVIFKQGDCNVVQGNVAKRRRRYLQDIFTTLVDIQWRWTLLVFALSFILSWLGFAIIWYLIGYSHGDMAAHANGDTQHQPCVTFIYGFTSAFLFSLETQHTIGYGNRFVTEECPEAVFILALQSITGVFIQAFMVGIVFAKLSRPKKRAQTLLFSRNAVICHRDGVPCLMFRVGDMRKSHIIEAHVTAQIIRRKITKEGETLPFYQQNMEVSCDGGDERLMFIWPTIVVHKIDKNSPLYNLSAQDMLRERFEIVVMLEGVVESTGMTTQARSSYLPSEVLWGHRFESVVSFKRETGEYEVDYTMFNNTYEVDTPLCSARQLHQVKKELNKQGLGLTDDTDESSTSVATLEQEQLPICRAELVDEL
# Procedure: T-REx-HEK293-AeKir1 cells were voltage clamped in the whole-cell configuration of the patch clamp technique after overnight induction with tetracycline (1 µg/ml). Patch electrodes were pulled from silanized 1.5 mm outer diameter borosilicate microhematocrit tubes using a Narishige PP-830 two-stage puller. Electrode resistance ranged from 2.5 to 3.5 MΩ when filled with the following intracellular solution (in mM): 135 KCl, 2 MgCl2, 1 EGTA, 10 HEPES free acid, 2 Na2ATP (Roche, Indianapolis, IN), pH 7.3, 275 mOsm. The standard bath solution contained (in mM): 135 NaCl, 5 KCl, 2 CaCl2, 1 MgCl2, 5 glucose, 10 HEPES free acid, pH 7.4, 290 mOsm. The high-K^+ bath contained (in mM): 90 NaCl, 50 KCl, 2 CaCl2, 1 MgCl2, 5 glucose, and 10 HEPES-free acid, pH 7.4, 290 mOsmol. Whole-cell currents were recorded under voltage-clamp conditions using an Axopatch 200B amplifier (Molecular Devices, Sunnyvale, CA). Electrical connections to the amplifier were made using Ag/AgCl wires and 3 M KCl/agar bridges. Electrophysiological data were collected at 5 kHz and filtered at 1 kHz. Data acquisition and analysis were performed using pClamp 9.2 software (Axon Instruments). After achieving stable whole-cell currents, VU573 or VU342 was applied intermittently or continuously for 2 to 10 min, followed by application of 2 mM BaCl2. All recordings were made at room temperature (20–23°C).
# [5] = tested on: adult female mosquitoes (Ae. aegypti); assay: Mosquito mortality after 900 nl Na+- or K+-PBS injection; type: in vivo, Aedes aegypti
# Procedure: A similar approach was used to determine the toxicity of VU573 after a stress to hemolymph Na^+ or K^+ homeostasis (Figure 2F). However, in these experiments each mosquito was injected with 900 nl of fluid (100 nl/s) and the mosquitoes were not given access to sucrose. The injected fluid was a Na^+-PBS or K^+-PBS containing 1.1% DMSO and 0.77 mM of VU573. Vehicle controls received the respective PBS with DMSO alone. The K^+-PBS consisted of the following in mM: 2.7 NaCl, 137 KCl, 2 Na2HPO4, and 10 KH2PO4 (pH 7.5).
# [6] = molecular target: T1, AeKir1; assay: Thallium (Tl+) flux assay of AeKir1 in T-REx-HEK-293 cells; type: cell-based; conditions: AeKir1-mediated Tl+ flux, means ± SEM
# Procedure: Compound master antagonist plates were created by serial diluting compounds 1∶3 from 30 mM stocks in 100% DMSO using the BRAVO liquid handler (Agilent Technologies, Santa Clara, CA). Assay daughter plates were created using the ECHO 555 liquid hander (Labcyte, Sunnyvale, CA), transferring 240 nl from the master plate to the daughter plate for each well followed by addition of 40 µl of assay buffer resulting in antagonist compound concentration response curves starting at 200 µM (2× final concentration). […] Cell plates and daughter compound plates were loaded onto a kinetic imaging plate reader (FDSS 6000; Hamamatsu Corporation, Bridgewater, NJ). […] Appropriate baseline readings were taken (10 images at 1 Hz; excitation, 470±20 nm; emission, 540±30 nm) and 20 µl test compounds were added followed by 50 images at 1 Hz additional baseline. Following a 20 minute incubation period, baseline readings were taken for 10 seconds followed by addition of 10 µl of Tl^+ stimulus buffer. […] Data were analyzed using Excel (Microsoft Corp, Redmond, WA). […] The slope of the fluorescence increase beginning 5 s after Tl^+ addition and ending 15 s after Tl^+ addition was calculated. […] Potencies were calculated from fits using a four parameter logistic equation.
# [7] = tested on: adult female Aedes albopictus; assay: Mosquito toxicology: incapacitation 24 h after injection (69 nl); type: in vivo; conditions: 69 nl Na+-PBS with 10 mM
# Procedure: as §1, §2
# (§4) Supplementary file pone.0064905.s003.tif: Figure S3 Incapacitating effects of VU573 in three species of mosquitoes. Adult female mosquitoes were injected with Na^+- PBS (69 nl) containing the vehicle (15% DMSO) or VU573 (10 mM). ‘% Incapacitated’ refers to the proportion of mosquitoes that are flightless or dead within 24 h after injection. Values are means ± SEM (n = 4 independent trials of 10 mosquitoes). Statistical differences between vehicle and VU573-treated mosquitoes were determined by a paired t-test for each species. […]
# [8] = tested on: adult female Culex pipiens; assay: as above; type: in vivo; conditions: 69 nl Na+-PBS with 10 mM
# Procedure: as §1, §2, §4
# [9] = tested on: adult female Anopheles gambiae; assay: as above; type: in vivo; conditions: 69 nl Na+-PBS with 10 mM
# Procedure: as §1, §2, §4
# [10] = tested on: principal cells of isolated Malpighian tubules; assay: Two-electrode voltage clamp of principal cells in isolated Malpighian tubules; type: cell-based, Aedes aegypti; conditions: for Rpc (kΩ) / Vbl (mV): VU573 10 µM or barium 5 mM, means ± SEM
# Procedure: The basolateral membrane voltage (Vbl) and input resistance (Rpc) of principal cells were measured in isolated Malpighian tubules using two-electrode voltage clamping, as described previously. In each experiment, a single principal cell near the distal (blind) end of the tubule was impaled with two glass microelectrodes: one measured Vbl and the other injected current (Im). The Rpc of the impaled cell was calculated from current-voltage plots that were generated via voltage clamping (see ref. [25] for details). After recording a steady-state Vbl and Rpc (control) from the impaled cell, either VU573 (10 µM) or BaCl2 (5 mM) was added to the peritubular bath. The resulting Vbl and Rpc (treatment) were measured again upon reaching a new steady-state (usually 1–2 min later).
# as §3
# [11] = 900 nl K+-HBS containing 0.77 mM compound
# [12] = 900 nl Na+-HBS containing 0.77 mM compound
# [13] = dose-response experiment, 24 h after injection
# [14] = 10 µM peritubular, change vs control
Structure (SMILES),mosquitoes bloated (retained fluid) [1],% Incapacitated (flightless or dead) [1],"rate of urine excretion [2, 11]","rate of urine excretion [2, 12] [nL/min]",rate of fluid secretion [3],IC50 [4] [µM],Rpc (kΩ) [10],Vbl (mV) [10],further results
N=c1n(Cc2ccccc2)c2ccccc2n1CC(O)CN1CCOCC1 (centres unmarked) [VU342],none,less than 20%,unaffected,5.7,no effect on the rate of fluid secretion,112 ± 1.1,–,–,times less potent than VU573 at inhibiting AeKir1 ([4]; ratio of IC50): 22 times; maximal inhibition of AeKir1 ([4]; requires 300 µM): ~65%
Cc1ccc(OCC(O)Cn2c(=N)n(Cc3ccccc3)c3ccccc32)cc1 (centres unmarked) [VU573],10%,~100%,0.73 nL/min,2.14,0.26 nL/min,5.14 ± 1.2,255.3±15.4 ^a kΩ,−52.4±4.5 ^b mV,"proportion of incapacitated mosquitoes that were dead [1, 13]: 7.7%; proportion of incapacitated mosquitoes that were flightless [1, 13]: 92.3%; proportion of incapacitated mosquitoes with greatly distended abdomens (bloated) [1, 13]: 3.6%; ED50 (incapacitated: flightless or dead) ([1]; within 24 h after injection of 69 nl PBS/15% DMSO into hemolymph): 53.6 pmol; mortality compared to vehicle ([5]; 900 nl K+-PBS with 0.77 mM): significantly increases mortality; mortality compared to vehicle ([5]; 900 nl Na+-PBS with 0.77 mM): does not significantly increase mortality; flightlessness ([5]; 900 nl Na+-PBS with 0.77 mM, within 24 hours): renders them flightless; IC50 [6]: 15 µM; incapacitating effect [7]: incapacitates these mosquitoes; incapacitating effect [8]: incapacitates these mosquitoes; incapacitating effect [9]: incapacitates these mosquitoes; hyperpolarization of basolateral membrane voltage (Vbl) [10, 14]: 7.0 mV; increase of input resistance (Rpc) [10, 14]: 5.7 kΩ"
"[Ba+2].[Cl-].[Cl-] [Barium, BaCl2, reference compound]",–,–,–,–,–,10,322.8±31.0 ^d kΩ,−59.3±3.3 ^c mV,–
